Marks after values point to notes of the source that are not given here.
Experiments:
[1] = molecular target: T1, cathepsin B (human Liver) (Homo sapiens, UniProt P07858); test: Cathepsin B binding of the radioconjugates (autoradiographic SDS-PAGE); settings: 2 hours
T1 construct: from tissue; host or cells: human liver
Protocol: Cathepsin B Binding of the Radioconjugates This procedure uses the same solutions as described above. The cathepsin B (human Liver)(3 nM, 10 μL) in storing buffer was added to the solution of the radioconjugate (500,000 cpm) in 40 μL of binding assay buffer and kept on ice for 2 hours. An aliquot (25 μL) of the solution was mixed with Novex Tris-Glycine SDS sample buffer (2×) (25 μL) and incubated for a further 10 minutes. The mixtures (20 μL) were loaded onto a Novex 16% tris-glycine gel and analyzed by SDS-PAGE at 110 V for 90 minutes. The autoradiograph of the SDS-PAGE was performed as described above.

HT-29 cells [2] = test: HT-29 cell efflux study; type: cell-based, human; settings: at 24 hours
Protocol: The HT-29 Cell Efflux Studies
The ^177Lu radioconjugate was added to a sterilized 1.5 mL microcentrifuge tube containing HT-29 cells ˜1×10^6) suspended in 300 μL of cell culture medium, yielding a final radioactivity concentration of 100,000 cpm/100 μL, and was incubated for 2 hours at 37° C. After the removal of the culture medium, the cells were washed with fresh medium (5×500 μL) followed by the addition of 500 μL of fresh medium for the efflux assay. At 0, 1, 2, 4, 8, and 24 hour time interval, fresh medium (500 μL) was added to the tube to replace the old medium which was harvested for quantitative analysis of the effluxed radioactivity using a gamma counter. The cells were lysed with a 10% aqueous SDS solution at 24 hour to quantify the remaining internalized radioactivity. The effluxed fraction is expressed as a percentage of the total radioactivity added to the tube, which is the sum of the effluxed and internalized fractions obtained from the study.

HT-29 cells [3] = test: Intracellular trapping of the radioconjugates in living HT-29 cells (GPC, SDS-PAGE); type: cell-based, human; settings: for intracellular adduct formation (in words): live HT-29 cells, GPC and SDS-PAGE
Protocol: Intracellular Trapping of the Radioconjugates in Living HT-29 Cells
To the HT-29 cells (1×10^6/well) seeded in 6-well plates was added the radioconjugates (0.74 MBq, 20 μCi) in 1 mL of cell culture medium. The cells were incubated at 37° C. for 4 hours and the medium was removed by vacuum followed washing with PBS (2×2 mL). The cells (˜3×10^6) were trypsinized and combined in microcentrifuge. The RIPA buffer (100 μL) containing Halttmprotease inhibitor (100×, 1 μL) was added to the cell pellet and vigorously vortexed for 1 minute. The suspension was incubated on ice for 15 minutes and centrifuged to remove the pellet. The supernatant (80 μL) was equally divided into two portions. The first portion (40 μL) was directly analyzed by radioactive-GPC with a flow rate of 0.6 mL/minute (40% ACN in PBS containing 0.1% sodium azide). The second portion (40 μL) of the cell lysate was mixed with Novex Tris-Glycine SDS sample buffer (2×) (40 μL) and incubated for another 15 minutes. The mixture (30 μL) was loaded onto a Novex 16% tris-glycine gel and analyzed by SDS-PAGE at 110 V for 90 minutes. The autoradiograph of the SDS-PAGE was performed as described above.

HT-29 xenograft tumors [4] = test: Biodistribution study in HT-29 xenograft mouse model; type: in vivo, mice; settings: HT-29 xenograft, by 24 hours
Protocol: Female SCID mice (5 weeks of age) received subcutaneous injections of HT-29 cells (5×10^6) suspended in Matrigel® into the flanks. When the tumor size reached 80 mm^3 (two weeks after injection), the mice were randomized into three groups and intravenously injected with 10 μCi (0.37 MBq) of the purified ^177Lu labeled conjugates via tail vein. The mice were sacrificed and the tissues were excised at 4, 24, and 72 hours post-injection time points. The blood, tumor, and excised tissues were weighed. The radioactivity for each sample was measured using a gamma counter. The percentage injected dose per gram (% ID/g) and the radioactivity ratios between tumor and non-targeted tissues were calculated.

[5] = molecular target: T1, cathepsin B (human Liver); test: Inhibition constant (Ki) of the compounds to cathepsin B; type: biochemical
Protocol: Determination of the Km and Vmax of Cathepsin B for Z-Arg-Arg-AMC
The solution of cathepsin B (human Liver) (50 μL, 2 nM) in assay buffer used above was mixed with 50 μL of solution of substrate Z-Arg-Arg-AMC in the assay buffer at different concentrations ([S]) (25 μM, 50 μM, 100 μM, 500 μM and 1 mM). The mixture was incubated at 37° C. and the fluorescence of the liberated aminomethylcoumarin at 460 nM using 355 nm excitation was measured at predetermined time points (0, 2, 4, 6, 8, and 10 minutes). The fluorescence intensity was plotted versus time and the reaction rates (v0) were calculated as the slope of the trend lines obtained by liner regression. Km and maximum reaction rate (Vmax-obs) was determined from the equation v0=Vmax[S]/(Km+[S]) and solved by nonlinear regression using GraphPad Prism 5. All measurements were in biological triplicate.
Determination of the Inhibition Constant (Ki) of the Compounds to Cathepsin B
The cathepsin B (human Liver) in assay buffer (25 μL) was mixed with the conjugate (25 μL) in 96-well plate. After the solution was mixed, the Z-Arg-Arg-AMC in assay buffer (50 μL) was added to the well, yielding a final cathepsin B concentration of 1 nM, conjugate concentration ([C]) of 15 nM or 5 μM, and substrate concentration ([S]) of 25 μM, 50 μM, 100 μM, 500 μM and 1 mM. The mixture was incubated at 37° C. and the fluorescence of the liberated aminomethylcoumarin at 460 nM using 355 nm excitation was measured at predetermined time points (0, 2, 4, 6, 8, and 10 minutes). The fluorescence intensity was plotted versus time with observed reaction rates (v0-obs) calculated as the slope of the trend lines obtained by liner regression. The observed rate constant (Kobs) and observed maximum reaction rate (Vmax-obs) was determined from the equation v0-obs=Vmax-obs [S]/(Kobs+[S]) and solved by nonlinear regression using GraphPad Prism 5. The Ki was calculated from the equation Kobs=Km (1+[C]/Ki). All measurements were in biological triplicate.

[6] = Distribution coefficient (Log D7.4) of the conjugates; type: physicochemical; settings: determined by radiometric analysis; 177Lu-labeled conjugate
Protocol: Distribution Coefficient (Log D7.4) of the Conjugates The distribution coefficient was determined for each ^177Lu-labeled conjugate. In a 1.5 mL centrifuge tube, 0.5 mL of 1-octanol was added to 0.5 mL of PBS (pH 7.4) containing the radiolabeled peptide (500,000 cpm). The solution was vigorously vortexed for 2 minutes at room temperature and subsequently centrifuged to yield two immiscible layers. The radioactivity of the aliquots (100 μL) taken from each layer were quantified by the gamma counter and the Log D7.4 for each conjugates was calculated.

HT-29 xenograft tumors [7] = test: Tissue adduct formation of the radioconjugates (SDS-PAGE, centrifugal filtration); type: in vivo, mice; settings: autoradiographic SDS-PAGE, 24 hours post-injection
Protocol: The radioconjugates (800 μCi/mouse) were intravenously injected to the tumor bearing mice. The mice were sacrificed and the tumor, liver, and kidney were excised at 24 and 72 hours post-injection time points. The tumor and organs were homogenized in RIPA buffer (50 mg/100 μL) containing Halt™ protease inhibitor (100×, 1 μL) on ice and centrifuged to remove the pellet. An aliquot (20 μL) of the supernatant of the sample at 24 hours was mixed with Novex Tris-Glycine SDS sample buffer (2×, 20 μL) and incubated for further 10 minutes. The mixtures (20 μL) were loaded onto a Novex 16% tris-glycine gel and analyzed by SDS-PAGE at 110 V for 90 minutes. The autoradiograph of the SDS-PAGE was performed according to the same method in section 3.8.1. On the other hand, the aliquots (100 μL) of supernatants of all the tumor samples at 24 hours and 72 hours were individually centrifuged with Pierce™ protein concentrators (MWCO=10 kDa) to separate the low molecular weight radioactivity. The radioactivity in each fraction was quantified using a gamma counter to calculate the percentage of the cysteine proteases trapped radioconjugate in the total counts.

HT-29 xenograft tumors [8] = system: HT-29 xenograft tumors; set-up: species or system mice; settings: mouse
Protocol: Evaluation of Cysteine Proteases Trapping of the Cy 5-Labeled Conjugates
The Cy 5-labeled conjugates (40 nmol) were intravenously injected to the tumor bearing mice. The mice were sacrificed at 24 post-injection time points, and the heart, lung, liver, spleen, pancreas, kidney, intestine, brain, and tumor were excised and imaged using an IVIS spectrum system. The tumor and organs were homogenized in RIPA buffer (50 mg/100 μL) containing Halt™ protease inhibitor (100×, 1 μL) on ice and centrifuged to remove the pellet. An aliquot (18 μL) of the supernatant of the sample was added in NuPAGE® sample reducing reagent (10×, 2 μL) and denatured at 80° C. for 2 minutes. The sample was mixed with Novex Tris-Glycine S DS sample buffer (2×, 20 μL) and incubated for further 10 minutes. The mixtures (20 μL) were loaded onto a Novex 16% tris-glycine gel and analyzed by SDS-PAGE at 110 V for 90 minutes, followed by electro transferring onto PVDF membranes. The PVDF membranes were blocked by animal-free blocking buffer for 1 hour at room temperature and then were incubated with Cathepsin B (D1C7Y) XP® Rabbit mAb at 4° C. for overnight. Membranes was then incubated with Goat anti-Rabbit IgG (H+L) secondary antibody at room temperature for 1 hour and visualized using Typhoon FLA 9500.

CatL = CatL (Homo sapiens, UniProt P07711); test: CatL inhibition constant; type: biochemical
CatL, sequence (P07711 114-333): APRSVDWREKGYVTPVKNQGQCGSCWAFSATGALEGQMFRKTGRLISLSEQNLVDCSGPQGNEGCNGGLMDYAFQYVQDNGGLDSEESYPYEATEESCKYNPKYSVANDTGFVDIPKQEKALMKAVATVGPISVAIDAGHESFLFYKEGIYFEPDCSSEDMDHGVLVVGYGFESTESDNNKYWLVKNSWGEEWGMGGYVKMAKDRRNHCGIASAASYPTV

With `Cc1cc(C)c(C(=O)OCC(=O)[C@H](CCCCNC(=O)COCCOCCOCCn2cc(C[C@H](NC(=O)CN3CCN(CC(=O)O)CCN(CC(=O)O)CCN(CC(=O)O)CC3)C(=O)NCCC(=O)N[C@@H](CCCCN)C(=O)N3CCC[C@H]3C(=O)N(C)[C@@H](CCCNC(=N)N)C(=O)N[C@@H](CCCNC(=N)N)C(=O)N3CCC[C@H]3C(=O)N[C@@H](Cc3c(C)cc(O)cc3C)C(=O)N[C@H](C(=O)N[C@@H](CC(C)C)C(=O)O)C(C)(C)C)nn2)NC(=O)[C@H](Cc2ccccc2)NC(=O)OCc2ccccc2)c(C)c1` [Compound 2c] as the compound, how does the “adduct formation with CatB (in words)” value [1] read?
The value was “adduct formation”.

And the efflux (HT-29 cells [2])?
Its efflux is 36%.

And the “percentage of macromolecular adducts with respect to total intracellular activity” value (HT-29 cells [3]; GPC profile, HT-29 cells, 4 hours incubation)?
The value was 61%.

And the “intracellular adduct formation (in words)” value (HT-29 cells [3])?
Its value is “multiple macromolecule adducts formed”.

Which “decrease in tumor retention” value (HT-29 xenograft tumors [4]) does the source give for `Cc1cc(O)cc(C)c1C[C@H](NC(=O)[C@@H]1CCCN1C(=O)[C@H](CCCNC(=N)N)NC(=O)[C@H](CCCNC(=N)N)N(C)C(=O)[C@@H]1CCCN1C(=O)[C@H](CCCCN)NC(=O)[C@@H](CO)NC(=O)[C@@H](CO)NC(=O)[C@@H](CO)NC(=O)[C@H](Cc1cn(CC(=O)N[C@H](CO)C(=O)N[C@H](CO)C(=O)N[C@H](CO)C(=O)NCC(=O)NCCCC[C@H](NC(=O)[C@H](Cc2ccccc2)NC(=O)OCc2ccccc2)C(=O)NCCc2ccccc2)nn1)NC(=O)CN1CCN(CC(=O)O)CCN(CC(=O)O)CCN(CC(=O)O)CC1)C(=O)N[C@H](C(=O)N[C@@H](CC(C)C)C(=O)O)C(C)(C)C` [Compound 3b] here?
Its value is 40%.

What about the efflux (HT-29 cells [2]) of the same compound?
The efflux was 69%.

What about the “CatB K1” value [5] of the same compound?
Its value is “ni”.

And the “Ki and inhibition IC50 to CatB (in words)” value [5]?
Its value is “did not demonstrate any inhibition”.

What about the logD7.4 [6] of the same compound?
Its logD7.4 is −2.01 ± 0.06^b.

What about the “in vivo adduct formation (in words)” value (HT-29 xenograft tumors [7]) of the same compound?
The value was “no signs of adduct formation”.

And the “intracellular adduct formation (in words)” value (HT-29 cells [3])?
The value was “no adduct formation”.

For `Cc1cc(C)c(C(=O)OCC(=O)[C@H](CCCCNC(=O)CNC(=O)[C@@H](CO)NC(=O)[C@@H](CO)NC(=O)[C@@H](CO)NC(=O)Cn2cc(C[C@H](NC(=O)CCCCC[N+]3=C(/C=C/C=C/C=C4/N(C)c5ccccc5C4(C)C)C(C)(C)c4ccccc43)C(=O)N[C@H](CO)C(=O)N[C@H](CO)C(=O)N[C@H](CO)C(=O)N[C@@H](CCCCN)C(=O)N3CCC[C@H]3C(=O)N(C)[C@@H](CCCNC(=N)N)C(=O)N[C@@H](CCCNC(=N)N)C(=O)N3CCC[C@H]3C(=O)N[C@@H](Cc3c(C)cc(O)cc3C)C(=O)N[C@H](C(=O)N[C@@H](CC(C)C)C(=O)O)C(C)(C)C)nn2)NC(=O)[C@H](Cc2ccccc2)NC(=O)OCc2ccccc2)c(C)c1` [Compound 4a], which “tumor retention by ex vivo imaging (in words)” value (HT-29 xenograft tumors [8]) is on record?
Its value is “greater than its counterpart 4b”.

Which “CatL Ki” value (CatL) does the source give for `Cc1cc(O)cc(C)c1C[C@H](NC(=O)[C@@H]1CCCN1C(=O)[C@H](CCCNC(=N)N)NC(=O)[C@H](CCCNC(=N)N)N(C)C(=O)[C@@H]1CCCN1C(=O)[C@H](CCCCN)NC(=O)[C@@H](CO)NC(=O)[C@@H](CO)NC(=O)[C@@H](CO)NC(=O)[C@H](Cc1cn(CCNC(=O)[C@H](CCCNC(=N)N)NC(=O)[C@H](CC(C)C)NC(=O)CCC(=O)O)nn1)NC(=O)CN1CCN(CC(=O)O)CCN(CC(=O)O)CCN(CC(=O)O)CC1)C(=O)N[C@H](C(=O)N[C@@H](CC(C)C)C(=O)O)C(C)(C)C` [Ec] here?
Its value is “ni^b”.

And the “CatB Ki” value ([5]; Table 3)?
Its value is “ni^b”.

From US12485191B2, “Radiopharmaceuticals and methods of use thereof” (BOARD OF REGENTS OF THE UNIVERSITY OF NEBRASKA, priority 2017, dated 2025)
